Results reported in US20120010161A1, “NOVEL AZAPEPTIDE OR AZAPEPTIDOMIMETIC COMPOUNDS INHIBITING BCRP AND/OR P-GP” (CENTRE NATIONAL DE LA RECHERCHE SCIENTIFIQUE, priority 2009, published 2012).
Entries after “also recorded” stand apart in the source; their conditions may differ.

How the values were obtained:
ABCG2 [1] = test: Estimation of the level of expression of ABCG2 (western blot); format: cell-based, human; settings: 5 μM, 3 h to 72 h
Experimental: Estimation of the level of expression of ABCG2. The cells HEK293 pcDNA3.1 or HEK293 pcDNA3.1 BCRP are seeded in sixteen 6 cm^2 Petri dishes and incubated for 24 hours at 37° C. under 5% CO2. After this incubation, the various wells are supplemented with 30 μL either of DMSO (controls) or of compound IA.2 dissolved in DMSO, corresponding to a final concentration after dilution of 5 μM. After 3 h, 24 h, 48 h or 72 h of incubation, the cells are trypsinized and centrifuged at 200 g for 5 minutes. The protein fraction is extracted with a hypotonic lysis buffer (10 mM Tris-Cl pH 7.5, 10 mM NaCl, 1 mM MgCl2, 1 mM DTT, protease inhibitors) and assayed with bicinchoninic acid (Sigma-Aldrich). Ten micrograms of this fraction are deposited on polyacrylamide gel of Laemmli type (U. K. Laemmli, Nature 1970, 227, 680) to separate the proteins, which are then transferred onto polyvinyl fluoride (pvdf) membrane for 60 minutes at 100 mA in a 10 mM CAPS pH 11.1 […] buffer, 10% methanol (Sigma-Aldrich). The pvdf membrane is then saturated for 30 minutes in a solution of powdered skimmed milk at 1% (w/v) in TBST buffer (Tris buffer saline 1×, Tween 20 0.1%). […] Revelation is performed using the “immobilon western” kit (Millipore) with the QuantityOne software (Biorad). […]

ABCG2 [2] = biological target: T1, ABCG2 (Homo sapiens, UniProt Q9UNQ0); test: Type of inhibition: mitoxantrone efflux by ABCG2 at varied substrate and inhibitor concentrations (FIG. 2); format: cell-based; parameters: expressed in transfected cells; host or cells: HEK-293 transfected with pcDNA3.1-ABCG2; settings: for type of inhibition of ABCG2: mitoxantrone 0 to 20 μM, inhibitor 0 to 20 μM
T1 sequence (Q9UNQ0 1-655): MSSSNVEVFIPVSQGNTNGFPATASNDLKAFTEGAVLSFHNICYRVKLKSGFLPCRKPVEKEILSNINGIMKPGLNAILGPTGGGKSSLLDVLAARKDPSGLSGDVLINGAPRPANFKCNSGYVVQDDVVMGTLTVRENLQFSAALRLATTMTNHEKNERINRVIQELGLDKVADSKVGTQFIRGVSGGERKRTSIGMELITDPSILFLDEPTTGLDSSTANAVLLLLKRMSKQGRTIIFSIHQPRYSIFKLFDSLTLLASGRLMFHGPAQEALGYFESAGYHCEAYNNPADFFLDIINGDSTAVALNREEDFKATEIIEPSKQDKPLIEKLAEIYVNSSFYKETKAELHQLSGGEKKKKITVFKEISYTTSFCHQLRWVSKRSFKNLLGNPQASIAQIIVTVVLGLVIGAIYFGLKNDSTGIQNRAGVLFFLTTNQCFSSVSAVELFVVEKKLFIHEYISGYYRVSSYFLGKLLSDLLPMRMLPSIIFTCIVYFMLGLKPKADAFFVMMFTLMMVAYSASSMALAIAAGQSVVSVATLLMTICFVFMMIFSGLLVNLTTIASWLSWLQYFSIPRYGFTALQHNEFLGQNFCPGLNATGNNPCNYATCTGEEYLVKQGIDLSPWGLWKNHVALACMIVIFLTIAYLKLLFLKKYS
Experimental: The efflux of mitoxantrone by ABCG2 was measured at substrate concentrations ranging from 0 to 20 μM (panels A-C) in the presence or absence of fixed concentrations of compound (IA.2) in a range from 0 to 20 μM (panels D-E). In FIG. 2, the results obtained by varying the […] concentration are presented as a representation, which is either direct in panel A or of Lineweaver-Burke form in panel B or of Eadie-Hofstee form in panel C. The results obtained by varying the […] concentration are presented in linear (panel D) or logarithmic (panel E) x-axis scale. The curves were adjusted by means of the SigmaPlot software.
This is confirmed by the Lineweaver-Burke and Eadie-Hofstee representations presented, respectively, in FIG. 2B and FIG. 2C. The representations of these two graphs are characteristic of this type of inhibition. The inhibition constant K of compound (IA.2) is estimated as about 1 μM from the adjustment of the points of FIG. 2D or FIG. 2E.

NIH-3T3 cells = test: Cytotoxicity on cell growth, MTT test; format: cell-based; settings: 72 hours
Experimental: The cells are seeded (10 000 cells/well) in 96-well plates and incubated for 24 hours at 37° C. under 5% CO2. Varied concentrations of mitoxantrone (from 0 to 20 μM in a constant final volume of 100 μL) are then added with an equal volume of each of the test compounds. The cells are then left to divide for 72 hours. The cytotoxicity is evaluated colorimetrically with 3-(4,5-dimethylthiazol-2-yl)-2,5-diphenyltetrazolium bromide (MTT).
Increasing concentrations of compound (IB.1) are applied to NIH-3T3 cells expressing or not expressing ABCB1, and whose residual vitality is evaluated after 72 hours of treatment by an MTT test. The results are illustrated in FIG. 9, in which the cells expressing ABCB1 are represented by empty circles, and those not expressing it by solid circles. […] It increases by 30-40% thereafter, but however remains limited to this value, up to a concentration equivalent to 40 times its IC50, whether or not ABCB1 is expressed.

Structure (SMILES) | level of expression of ABCG2 (ABCG2 [1]; HEK293 BCRP cells, vs DMSO) | level of expression of tubulin (control protein) (ABCG2 [1]; HEK293 cells) | Ki (ABCG2 [2]; ABCG2, mitoxantrone efflux, from adjustment of FIG. 2D or 2E, read-out: inhibition constant K) [nM] | type of inhibition of ABCG2 (ABCG2 [2]) | increase of cytotoxicity on NIH-3T3 cells (NIH-3T3 cells; above 5 times and up to 40 times its IC50, expressing or not ABCB1) | harmlessness on NIH-3T3 cells (NIH-3T3 cells; cells expressing or not ABCB1) | cytotoxicity on NIH-3T3 cells (NIH-3T3 cells; up to 5 times its IC50)
CC(C)(C)OC(=O)NN(C(=O)N[C@@H](CCCCNC(=O)OCc1ccccc1)C(=O)OC(C)(C)C)c1cccc(C(=O)OCc2ccccc2)c1 [IA.2, tert-Butyl ester of (2S)-6-(benzyloxycarbonylamino)-2-[1-(3′-(benzyloxycarbonyl)phenyl)-2-(tert-butoxycarbonyl)hydrazino-carbonylamino]hexanoic acid] | reduces the level of expression; also recorded: decrease in the level of expression | without affecting | ~1000 | noncompetitive inhibitor | – | – | –
CC(C)(C)OC(=O)N[C@H](CNN(CCCCCCNC(=O)OCc1ccccc1)C(=O)OC(C)(C)C)CC(=O)OCc1ccccc1 [IB.1, Benzyl ester of (3S)-4-[2-(6-benzyloxycarbonylaminohexyl)-2-tert-butoxycarbonylhydrazino]-3-tert-butoxycarbonylaminobutyric acid] | – | – | – | – | 30-40% | harmlessness | negligible
CC(C)(C)OC(=O)N[C@H](CNN(CCCCCCNC(=O)OCc1ccccc1)C(=O)OCc1ccccc1)CC(=O)OCc1ccccc1 [IB.11, Benzyl ester of (3S)-4-[2-benzyloxycarbonyl-2-(6-benzyloxycarbonylaminohexyl)hydrazino]-3-tert-butoxycarbonyl-aminobutyric acid] | – | – | – | noncompetitive | – | – | –
